Source: patent US20200165257A1, “INHIBITORS OF PHOSPHOINOSITIDE 3-KINASE AND HISTONE DEACETYLASE FOR TREATMENT OF CANCER” (THE UNITED STATES OF AMERICA, AS REPRESENTED BY THE …, priority 2017, published 2020)
Like-named read-outs stand apart in the source and are kept apart here.

Key:
PI3Kδ = PI3Kδ (Homo sapiens, UniProt O00329); experiment: PI3Kδ kinase assay (HTRF); format: biochemical; details: for inhibition at 1 µM: symbols ** / *, read-out: PI3Kδ Inhibition Activity (% Inhibition class)
Description: (§1) The PIP3 product is detected by displacement of biotin-PIP3 from an energy transfer complex consisting of Europium labeled anti-GST monoclonal antibody, a GST-tagged pleckstrin homology (PH) domain, biotinylated PIP3 and Streptavidin-Allophycocyanin (APC). […] The PIP3 product formed by PI 3-Kinase(h) activity displaces biotin-PIP3 from the complex resulting in a loss of energy transfer, and thus, a decrease in signal.
(§2) First, the kinase reaction with PIP2 substrate is carried out in the presence of ATP, and the reaction is quenched with stop Solution, and then, finally detect by adding Detection Mixture followed by incubation.
(§3) HEPES 50 mM (pH7.0), NaN3 0.02%, BSA 0.01%, Orthovanadate 0.1 mM, 1% DMSO.
(§4) Detection buffer: HEPES 10 mM (pH7.0), BSA 0.02%, KF 0.16 M, EDTA 4 mM.
(§5) 10 μM PIP2 substrate (PI(4,5)P2)
(§6) 10 μM ATP under standard conditions
(§7) 1. Prepare substrate in freshly prepared Reaction Buffer.
(§8) 2. Deliver kinase into the substrate solution and gently mix.
(§9) 3. Deliver compounds in 100% DMSO into the kinase reaction mixture by Acoustic technology (Echo550; nanoliter range), incubate for 10 min at room temperature.
(§10) 4. Deliver ATP into the reaction mixture to initiate the reaction.
(§11) 5. Incubate for 30 min at 30° C.
(§12) 6. Quench the reaction with Stop Solution.
(§13) 7. Add Detection Mixture, and incubate for overnight.
(§14) The emission ratio is converted into μM PIP3 production based on PIP3 standard curves.
(§15) The nonlinear regression to obtain the standard curve and IC50 values are performed using Graphpad Prism software.

PI3Kα = PI3Kα (Homo sapiens, UniProt P42336); experiment: PI3Kα kinase assay (HTRF); format: biochemical
Description: as §1, §2, §3, §4, §5, §6, §7, §8, §9, §10, §11, §12, §13, §14, §15

PI3Kβ = PI3Kβ (Homo sapiens, UniProt P42338); experiment: PI3Kβ kinase assay (HTRF); format: biochemical
Description: as §1, §2, §3, §4, §5, §6, §7, §8, §9, §10, §11, §12, §13, §14, §15

PI3Kγ = PI3Kγ (Homo sapiens, UniProt P48736); experiment: PI3Kγ kinase assay (HTRF); format: biochemical
Description: as §1, §2, §3, §4, §5, §6, §7, §8, §9, §10, §11, §12, §13, §14, §15

HDAC6 = target: T1, HDAC6 (Homo sapiens, UniProt Q9UBN7); experiment: HDAC Fluorescent Activity Assay; format: biochemical; details: for inhibition at 1 µM: symbols ** / *, read-out: HDAC6 Inhibition Activity (% Inhibition class)
T1 sequence (Q9UBN7 1-1215): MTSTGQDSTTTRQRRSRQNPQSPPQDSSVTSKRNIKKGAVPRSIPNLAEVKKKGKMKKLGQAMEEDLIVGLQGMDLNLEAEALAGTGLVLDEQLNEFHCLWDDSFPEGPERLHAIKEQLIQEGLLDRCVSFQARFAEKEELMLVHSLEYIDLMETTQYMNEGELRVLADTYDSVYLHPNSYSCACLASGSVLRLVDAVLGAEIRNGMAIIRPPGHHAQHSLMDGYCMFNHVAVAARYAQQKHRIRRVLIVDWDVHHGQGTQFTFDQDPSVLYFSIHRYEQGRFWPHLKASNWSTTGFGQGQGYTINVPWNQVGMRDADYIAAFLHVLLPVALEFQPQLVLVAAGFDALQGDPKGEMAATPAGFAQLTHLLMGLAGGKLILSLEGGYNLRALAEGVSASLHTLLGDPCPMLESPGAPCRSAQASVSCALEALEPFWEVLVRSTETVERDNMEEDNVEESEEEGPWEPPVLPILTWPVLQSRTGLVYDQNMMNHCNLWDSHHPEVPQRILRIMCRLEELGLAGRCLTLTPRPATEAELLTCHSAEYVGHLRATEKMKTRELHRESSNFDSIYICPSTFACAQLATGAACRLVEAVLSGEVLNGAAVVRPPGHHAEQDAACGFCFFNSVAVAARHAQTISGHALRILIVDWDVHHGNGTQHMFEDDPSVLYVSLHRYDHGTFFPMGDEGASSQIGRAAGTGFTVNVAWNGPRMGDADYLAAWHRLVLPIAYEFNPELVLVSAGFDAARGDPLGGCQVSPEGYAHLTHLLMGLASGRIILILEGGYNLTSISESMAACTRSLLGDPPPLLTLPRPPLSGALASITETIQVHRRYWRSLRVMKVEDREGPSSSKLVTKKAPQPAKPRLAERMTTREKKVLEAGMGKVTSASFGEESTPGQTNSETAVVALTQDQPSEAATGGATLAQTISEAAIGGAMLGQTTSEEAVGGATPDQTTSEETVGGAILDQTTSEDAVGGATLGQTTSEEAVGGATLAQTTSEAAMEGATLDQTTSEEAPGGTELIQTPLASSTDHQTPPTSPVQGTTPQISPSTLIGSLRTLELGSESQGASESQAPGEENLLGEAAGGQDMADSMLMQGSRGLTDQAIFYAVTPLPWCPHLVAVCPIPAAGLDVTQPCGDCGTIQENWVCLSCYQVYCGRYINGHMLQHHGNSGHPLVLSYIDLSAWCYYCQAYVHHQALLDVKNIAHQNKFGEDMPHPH
Description: This protocol is to determine the IC50s or percentage of inhibition values of the test compound against HDACs.
The HDAC Fluorescent Activity Assay is based on the unique Fluorogenic Substrate and Developer combination. […] First, the Fluorogenic Substrate, which comprises an acetylated lysine side chain, is incubated with a purified HDAC enzyme. Deacetylation of the substrate sensitizes the substrate so that, in the second step, treatment with the Developer produces a fluorophore.
Testing compounds were dissolved in 100% DMSO to specific concentration. […]
1. Deliver 2× enzyme in wells of reaction plate except No Enzyme control wells. Add buffer in No En wells.
2. Deliver compounds in 100% DMSO into the enzyme mixture by Acoustic technology (Echo550; nanoliter range). Spin down and pre-incubation.
3. Deliver 2× Substrate Mixture (Fluorogenic HDAC Substrate and co-factor if applicable) in all reaction wells to initiate the reaction. Spin and shake.
4. Incubate for 1-2 hr at 30° C. with seal.
5. Add Developer with Trichostatin A (or TMP269) to stop the reaction and to generate fluorescent color.
6. Fluorescence was read (excitatory, 360; emission, 460) using the EnVision Multilabel
7. Take endpoint reading for analysis after the development reaches plateau.
The percentages of enzyme activity (relative to DMSO controls) and IC50 values were calculated using the GraphPad Prism 4 program based on a sigmoidal dose-response equation.

[1] = tested on: Leukemia Cell Line MOLT-4; format: cell-based; details: Homo sapiens
[2] = tested on: Leukemia Cell Line RPMI-8226; format: cell-based; details: Homo sapiens
Leukemia Cell Line SR = experiment: cells; format: cell-based; details: Homo sapiens, read-out: inhibition of proliferation
[3] = tested on: Breast Cancer Cell Line HS 578T; format: cell-based; details: Homo sapiens, read-out: inhibition of proliferation
[4] = tested on: Breast Cancer Cell Line MDA-MB-468; experiment: cells; details: Homo sapiens, MDA-MB-468, read-out: inhibition of proliferation
[5] = tested on: Leukemia Cell Line CCRF-CEM; experiment: cells; format: cell-based; details: Homo sapiens, read-out: inhibition of proliferation
[6] = tested on: Leukemia Cell Line HL-60(TB); format: cell-based; details: Homo sapiens
[7] = tested on: Melanoma Cell Line UACC-62; experiment: cells; format: cell-based; details: Homo sapiens
Ovarian Cell Line IGROV1 = format: cell-based; details: Homo sapiens
[8] = tested on: Ovarian Cell Line OVCAR-8; experiment: cells; format: cell-based; details: Homo sapiens, OVCAR-8, read-out: inhibition of proliferation
[9] = tested on: Ovarian Cell Line NCI/ADR-RES; experiment: cells; format: cell-based; details: Homo sapiens, read-out: inhibition of proliferation
[10] = tested on: Breast Cancer Cell Line BT-549; experiment: cells; format: cell-based; details: Homo sapiens, BT-549, read-out: inhibition of proliferation
[11] = tested on: Ovarian Cell Line OVCAR-3; experiment: cells; details: Homo sapiens, OVCAR-3, read-out: inhibition of proliferation
[12] = HS 578T, single dose, 10 uM compound concentration
[13] = HL-60, read-out: inhibition of proliferation
[14] = MOLT-4, read-out: inhibition of proliferation
[15] = RPMI-8226, read-out: inhibition of proliferation
[16] = UACC-62, read-out: inhibition of proliferation
[17] = IGROV-1, read-out: inhibition of proliferation

PI3Kδ, sequence (O00329 whole entry): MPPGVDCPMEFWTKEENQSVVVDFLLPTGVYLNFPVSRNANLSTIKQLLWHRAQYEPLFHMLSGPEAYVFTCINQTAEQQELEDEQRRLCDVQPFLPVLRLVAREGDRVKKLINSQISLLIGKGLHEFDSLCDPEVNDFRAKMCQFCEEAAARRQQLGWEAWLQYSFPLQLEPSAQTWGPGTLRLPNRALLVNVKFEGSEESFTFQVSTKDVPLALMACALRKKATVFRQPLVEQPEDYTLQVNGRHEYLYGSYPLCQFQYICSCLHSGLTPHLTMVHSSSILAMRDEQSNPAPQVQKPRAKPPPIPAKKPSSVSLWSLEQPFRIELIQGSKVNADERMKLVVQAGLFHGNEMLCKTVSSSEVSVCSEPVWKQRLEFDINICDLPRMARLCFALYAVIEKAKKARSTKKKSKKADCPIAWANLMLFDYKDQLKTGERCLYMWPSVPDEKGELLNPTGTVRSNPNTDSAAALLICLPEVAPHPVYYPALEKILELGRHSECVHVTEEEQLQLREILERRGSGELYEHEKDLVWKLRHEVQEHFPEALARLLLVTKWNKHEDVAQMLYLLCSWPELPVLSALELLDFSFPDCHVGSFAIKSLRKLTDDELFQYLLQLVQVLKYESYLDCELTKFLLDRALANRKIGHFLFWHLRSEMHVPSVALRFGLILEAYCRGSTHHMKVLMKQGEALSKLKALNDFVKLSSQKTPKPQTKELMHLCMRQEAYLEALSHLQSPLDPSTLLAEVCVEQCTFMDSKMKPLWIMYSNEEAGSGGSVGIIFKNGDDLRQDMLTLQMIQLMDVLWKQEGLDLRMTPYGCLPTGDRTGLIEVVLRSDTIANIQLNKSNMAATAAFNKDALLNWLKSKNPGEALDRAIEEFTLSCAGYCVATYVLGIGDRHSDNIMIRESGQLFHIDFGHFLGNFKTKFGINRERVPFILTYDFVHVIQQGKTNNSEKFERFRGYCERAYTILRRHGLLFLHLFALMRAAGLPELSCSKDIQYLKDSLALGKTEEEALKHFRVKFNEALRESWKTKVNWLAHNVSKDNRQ
PI3Kδ, sequence (P27986 whole entry partner): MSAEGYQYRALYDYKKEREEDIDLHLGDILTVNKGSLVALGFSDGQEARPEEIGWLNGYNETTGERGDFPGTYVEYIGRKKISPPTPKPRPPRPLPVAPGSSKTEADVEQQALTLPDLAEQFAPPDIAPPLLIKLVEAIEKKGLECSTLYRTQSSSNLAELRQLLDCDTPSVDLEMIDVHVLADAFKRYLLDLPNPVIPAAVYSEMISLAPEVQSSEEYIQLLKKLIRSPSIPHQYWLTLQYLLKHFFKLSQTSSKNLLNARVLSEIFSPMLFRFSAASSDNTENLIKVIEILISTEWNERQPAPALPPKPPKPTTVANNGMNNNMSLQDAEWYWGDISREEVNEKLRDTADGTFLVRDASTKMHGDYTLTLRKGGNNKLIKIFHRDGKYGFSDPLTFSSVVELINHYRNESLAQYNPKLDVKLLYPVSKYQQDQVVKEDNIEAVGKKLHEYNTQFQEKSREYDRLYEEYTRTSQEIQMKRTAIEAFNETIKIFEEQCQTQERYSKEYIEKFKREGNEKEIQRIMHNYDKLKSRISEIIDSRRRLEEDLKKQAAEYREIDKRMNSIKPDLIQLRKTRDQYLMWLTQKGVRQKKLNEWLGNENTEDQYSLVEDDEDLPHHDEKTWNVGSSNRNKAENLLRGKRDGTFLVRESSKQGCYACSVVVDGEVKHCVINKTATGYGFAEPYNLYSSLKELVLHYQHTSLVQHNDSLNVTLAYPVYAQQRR
PI3Kγ, sequence (P48736 whole entry): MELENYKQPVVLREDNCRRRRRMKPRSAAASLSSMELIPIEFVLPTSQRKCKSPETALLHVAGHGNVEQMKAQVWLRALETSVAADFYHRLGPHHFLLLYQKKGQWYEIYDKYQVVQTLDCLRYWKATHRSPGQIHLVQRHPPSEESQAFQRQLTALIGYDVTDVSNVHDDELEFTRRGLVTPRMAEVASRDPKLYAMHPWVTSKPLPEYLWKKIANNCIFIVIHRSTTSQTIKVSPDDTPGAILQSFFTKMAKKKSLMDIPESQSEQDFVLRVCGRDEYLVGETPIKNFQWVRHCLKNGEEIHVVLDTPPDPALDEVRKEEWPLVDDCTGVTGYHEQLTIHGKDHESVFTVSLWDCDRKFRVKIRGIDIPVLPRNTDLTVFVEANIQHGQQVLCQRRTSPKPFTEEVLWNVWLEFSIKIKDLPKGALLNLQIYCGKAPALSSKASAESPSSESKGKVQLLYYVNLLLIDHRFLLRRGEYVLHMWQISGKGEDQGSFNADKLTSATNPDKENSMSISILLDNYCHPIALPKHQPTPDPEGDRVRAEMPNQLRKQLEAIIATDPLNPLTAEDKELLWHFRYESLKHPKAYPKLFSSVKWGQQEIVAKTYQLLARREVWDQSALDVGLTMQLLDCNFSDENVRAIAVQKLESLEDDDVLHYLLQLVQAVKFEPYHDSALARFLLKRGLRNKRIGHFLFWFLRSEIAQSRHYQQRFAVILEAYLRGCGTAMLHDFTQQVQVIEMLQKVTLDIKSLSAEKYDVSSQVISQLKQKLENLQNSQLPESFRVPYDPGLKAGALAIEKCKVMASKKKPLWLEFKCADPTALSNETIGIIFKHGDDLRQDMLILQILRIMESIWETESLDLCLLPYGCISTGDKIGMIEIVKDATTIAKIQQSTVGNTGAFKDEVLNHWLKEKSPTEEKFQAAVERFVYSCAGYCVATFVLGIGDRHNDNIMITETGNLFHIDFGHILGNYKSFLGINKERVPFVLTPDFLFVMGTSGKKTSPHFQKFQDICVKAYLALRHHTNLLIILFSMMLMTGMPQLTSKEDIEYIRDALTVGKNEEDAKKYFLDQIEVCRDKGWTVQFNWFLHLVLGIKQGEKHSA
PI3Kβ, sequence (P42338 whole entry): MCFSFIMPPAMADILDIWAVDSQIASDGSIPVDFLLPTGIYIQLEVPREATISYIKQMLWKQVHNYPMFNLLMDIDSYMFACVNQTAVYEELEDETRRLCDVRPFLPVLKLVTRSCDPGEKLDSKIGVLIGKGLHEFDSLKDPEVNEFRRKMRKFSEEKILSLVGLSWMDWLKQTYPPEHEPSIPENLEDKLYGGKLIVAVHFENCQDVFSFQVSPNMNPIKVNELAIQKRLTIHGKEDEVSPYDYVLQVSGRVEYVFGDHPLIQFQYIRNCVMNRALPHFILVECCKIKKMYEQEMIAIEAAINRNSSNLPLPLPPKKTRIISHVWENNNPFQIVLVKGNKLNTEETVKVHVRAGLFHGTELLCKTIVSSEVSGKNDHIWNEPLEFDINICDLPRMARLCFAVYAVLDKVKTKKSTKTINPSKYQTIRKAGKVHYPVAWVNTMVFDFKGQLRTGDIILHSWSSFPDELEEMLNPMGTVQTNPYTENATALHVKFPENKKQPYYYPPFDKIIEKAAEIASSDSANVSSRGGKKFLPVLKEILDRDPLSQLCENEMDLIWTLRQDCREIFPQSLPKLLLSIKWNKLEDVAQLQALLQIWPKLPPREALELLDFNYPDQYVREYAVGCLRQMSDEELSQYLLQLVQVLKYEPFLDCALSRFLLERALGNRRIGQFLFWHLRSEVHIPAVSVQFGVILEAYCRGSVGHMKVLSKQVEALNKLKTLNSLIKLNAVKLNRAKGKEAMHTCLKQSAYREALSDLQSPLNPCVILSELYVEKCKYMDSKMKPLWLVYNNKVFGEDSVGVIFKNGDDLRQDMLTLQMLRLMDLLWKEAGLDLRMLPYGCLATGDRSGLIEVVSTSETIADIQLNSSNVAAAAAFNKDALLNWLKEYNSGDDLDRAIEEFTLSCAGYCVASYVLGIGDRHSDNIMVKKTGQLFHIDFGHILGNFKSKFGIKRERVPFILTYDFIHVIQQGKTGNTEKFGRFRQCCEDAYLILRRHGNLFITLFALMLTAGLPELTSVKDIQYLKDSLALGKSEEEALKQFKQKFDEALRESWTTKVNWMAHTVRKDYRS
PI3Kβ, sequence (P27986 whole entry partner): as the sequence (P27986 whole entry partner) above
PI3Kα, sequence (P42336 whole entry): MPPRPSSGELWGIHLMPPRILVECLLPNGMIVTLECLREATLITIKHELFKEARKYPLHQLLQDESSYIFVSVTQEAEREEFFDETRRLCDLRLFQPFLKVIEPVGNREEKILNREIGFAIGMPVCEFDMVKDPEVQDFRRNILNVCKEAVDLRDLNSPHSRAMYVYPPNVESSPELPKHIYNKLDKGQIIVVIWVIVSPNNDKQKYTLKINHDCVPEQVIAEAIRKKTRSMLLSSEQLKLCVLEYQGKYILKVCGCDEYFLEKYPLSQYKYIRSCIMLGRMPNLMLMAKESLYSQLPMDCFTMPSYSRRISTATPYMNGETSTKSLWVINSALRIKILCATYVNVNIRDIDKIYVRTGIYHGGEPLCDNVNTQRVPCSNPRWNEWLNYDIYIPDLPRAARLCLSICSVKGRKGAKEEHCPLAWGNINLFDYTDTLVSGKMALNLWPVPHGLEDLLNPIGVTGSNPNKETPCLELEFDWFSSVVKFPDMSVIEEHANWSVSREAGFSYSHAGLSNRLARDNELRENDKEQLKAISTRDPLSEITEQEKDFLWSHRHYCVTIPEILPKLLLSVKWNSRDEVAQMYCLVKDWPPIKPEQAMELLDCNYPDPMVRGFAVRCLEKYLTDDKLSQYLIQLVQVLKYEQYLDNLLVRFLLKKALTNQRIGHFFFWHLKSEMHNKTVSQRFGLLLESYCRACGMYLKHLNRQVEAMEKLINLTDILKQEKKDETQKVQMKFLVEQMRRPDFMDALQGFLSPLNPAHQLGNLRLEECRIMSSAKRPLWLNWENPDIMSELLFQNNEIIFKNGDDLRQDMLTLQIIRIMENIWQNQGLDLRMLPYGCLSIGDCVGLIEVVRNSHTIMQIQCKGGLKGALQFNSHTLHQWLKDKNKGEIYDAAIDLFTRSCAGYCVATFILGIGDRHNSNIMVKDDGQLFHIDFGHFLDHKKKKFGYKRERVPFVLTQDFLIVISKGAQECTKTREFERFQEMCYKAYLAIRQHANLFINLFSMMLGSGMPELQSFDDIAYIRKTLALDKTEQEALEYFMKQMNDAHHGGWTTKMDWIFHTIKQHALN
PI3Kα, sequence (P27986 whole entry partner): as the sequence (P27986 whole entry partner) above

Compound: CC[C@H](Nc1ncnc2[nH]cnc12)c1nc2cccc(CC(=O)c3ccc(C(=O)NO)cc3)c2c(=O)n1-c1ccccc1 [Compound I, (S)-4-(2-(2-(1-((9H-purin-6-yl)amino)propyl)-4-oxo-3-phenyl-3,4-dihydroquinazolin-5-yl)acetyl)-N-hydroxybenzamide]
- inhibition at 1 µM (PI3Kδ): > 90%
- inhibition at 1 µM (PI3Kα): < 85%
- inhibition at 1 µM (PI3Kβ): < 85%
- inhibition at 1 µM (PI3Kγ): < 85%
- inhibition at 1 µM (HDAC6): > 90%
- inhibition at 10 µM ([1]; MOLT-4, single dose, 10 uM compound concentration, read-out: inhibition of proliferation): 25 to 50%
- inhibition at 10 µM ([2]; RPMI-8226, single dose, 10 uM compound concentration, read-out: inhibition of proliferation): > 50%
- inhibition at 10 µM (Leukemia Cell Line SR; SR, single dose, 10 uM compound concentration): 25 to 50%
- inhibition at 10 µM [3, 12]: 25 to 50%
- inhibition at 10 µM [4]: 25 to 50%

Compound: CC[C@H](Nc1nc(N)nc(C)c1C#N)c1nc2cccc(NCc3ccc(C(=O)NO)cc3)c2c(=O)n1-c1ccccc1 [Compound XL, (S)-4-(((2-(1-((2-amino-5-cyano-6-methylpyrimidin-4-yl)amino)propyl)-4-oxo-3-phenyl-3,4-dihydroquinazolin-5-yl)amino)methyl)-N-hydroxybenzamide]
- inhibition at 10 µM [5]: > 50%
- inhibition at 10 µM [6, 13]: > 50%
- inhibition at 10 µM [1, 14]: > 50%
- inhibition at 10 µM [2, 15]: > 50%
- inhibition at 10 µM [7, 16]: > 50%
- inhibition at 10 µM (Ovarian Cell Line IGROV1; [17]): > 50%
- inhibition at 10 µM [8]: > 50%
- inhibition at 10 µM [9]: 25 to 50%
- inhibition at 10 µM ([3]; Hs-578T): > 50%
- inhibition at 10 µM [10]: > 50%
- inhibition at 10 µM [11]: > 50%
- inhibition at 10 µM [4]: > 50%

Compound: CC[C@H](Nc1ncnc2[nH]cnc12)c1nc2cccc(CCCCNC(=O)NO)c2c(=O)n1-c1ccccc1 [Compound XXIV]
- IC50 (PI3Kδ; symbols ++ / +, read-out: PI3Kδ Inhibition Activity (IC50 class)): < 100 nM
- inhibition at 1 µM (PI3Kα): < 85%
- inhibition at 1 µM (PI3Kβ): < 85%
- inhibition at 1 µM (PI3Kγ): 91%
- IC50 (HDAC6; symbols ++ / +, read-out: HDAC6 Inhibition Activity (IC50 class)): > 100 nM
- inhibition at 10 µM [5]: 25 to 50%
- inhibition at 10 µM [6, 13]: > 50%
- inhibition at 10 µM (Leukemia Cell Line SR): 25 to 50%
- inhibition at 10 µM [7, 16]: 25 to 50%
- inhibition at 10 µM (Ovarian Cell Line IGROV1; [17]): > 50%
- inhibition at 10 µM ([3]; Hs-578T): 25 to 50%
- inhibition at 10 µM [10]: 25 to 50%
- inhibition at 10 µM [4]: 25 to 50%

Compound: CC[C@H](Nc1ncnc2[nH]cnc12)c1nc2cccc(CCCCC(=O)NO)c2c(=O)n1-c1ccccc1 [XII, (S)-5-(2-(1-((9H-purin-6-yl)amino)propyl)-4-oxo-3-phenyl-3,4-dihydroquinazolin-5-yl)-N-hydroxypentanamide]
- inhibition at 10 µM [5]: 25 to 50%
- inhibition at 10 µM [1, 14]: 25 to 50%
- inhibition at 10 µM [2, 15]: > 50%
- inhibition at 10 µM (Leukemia Cell Line SR): > 50%
- inhibition at 10 µM ([3]; Hs-578T): 25 to 50%
- inhibition at 10 µM [4]: 25 to 50%

Compound: CC[C@H](Nc1cc(C)nc(N)n1)c1nc2cccc(NCc3ccc(C(=O)NO)cc3)c2c(=O)n1-c1ccccc1 [XLI, (S)-4-(((2-(1-((2-amino-6-methylpyrimidin-4-yl)amino)propyl)-4-oxo-3-phenyl-3,4-dihydroquinazolin-5-yl)amino)methyl)-N-hydroxybenzamide]
- inhibition at 10 µM [5]: > 50%
- inhibition at 10 µM [6, 13]: > 50%
- inhibition at 10 µM [1, 14]: > 50%
- inhibition at 10 µM [2, 15]: > 50%
- inhibition at 10 µM [7, 16]: > 50%
- inhibition at 10 µM (Ovarian Cell Line IGROV1; [17]): > 50%
- inhibition at 10 µM [8]: > 50%
- inhibition at 10 µM ([3]; Hs-578T): > 50%
- inhibition at 10 µM [10]: > 50%
- inhibition at 10 µM [11]: > 50%
- inhibition at 10 µM [4]: > 50%

Compound: CC[C@H](Nc1nc(N)nc(C)c1C#N)c1nc2cccc(N3CCC(CC(=O)NO)CC3)c2c(=O)n1-c1ccccc1 [XLIX, (S)-2-(1-(2-(1-((2-amino-5-cyano-6-methylpyrimidin-4-yl)amino)propyl)-4-oxo-3-phenyl-3,4-dihydroquinazolin-5-yl)piperidin-4-yl)-N-hydroxyacetamide]
- inhibition at 1 µM (PI3Kδ): > 90%
- inhibition at 1 µM (HDAC6): < 90%
- inhibition at 10 µM ([5]; single dose, 10 uM compound concentration): 25 to 50%
- inhibition at 10 µM ([6]; HL-60(TB), single dose, 10 uM compound concentration, read-out: inhibition of proliferation): 25 to 50%
- inhibition at 10 µM ([7]; UACC-62, single dose, 10 uM compound concentration, read-out: inhibition of proliferation): 25 to 50%
- inhibition at 10 µM (Ovarian Cell Line IGROV1; IGROV-1, IGROV1, single dose, 10 uM compound concentration, read-out: inhibition of proliferation): 25 to 50%
- inhibition at 10 µM [3, 12]: 25 to 50%
- inhibition at 10 µM [4]: 25 to 50%
